In ChEMBL document CHEMBL1221220, “Transport and signaling via the amino acid binding site of the yeast Gap1 amino acid transceptor” (Nat Chem Biol, 2009):
Non-standard residues stand in square brackets, D forms with d. Residues, ends and D or L forms follow the SMILES beside them. Hyp = O=C(O)[C@@H]1C[C@@H](O)CN1; Cit = NC(=O)NCCC[C@H](N)C(=O)O; NMeD = CN[C@@H](CC(=O)O)C(=O)O; pGlu = O=C1CC[C@@H](C(=O)O)N1; βAla = NCCC(=O)O; Sar = CNCC(=O)O

What follows are molecules tested against T1, General amino-acid permease GAP1 (Saccharomyces cerevisiae) (UniProt P19145). Conditions: sigma1278b, at 5 mM.
T1 sequence (whole entry): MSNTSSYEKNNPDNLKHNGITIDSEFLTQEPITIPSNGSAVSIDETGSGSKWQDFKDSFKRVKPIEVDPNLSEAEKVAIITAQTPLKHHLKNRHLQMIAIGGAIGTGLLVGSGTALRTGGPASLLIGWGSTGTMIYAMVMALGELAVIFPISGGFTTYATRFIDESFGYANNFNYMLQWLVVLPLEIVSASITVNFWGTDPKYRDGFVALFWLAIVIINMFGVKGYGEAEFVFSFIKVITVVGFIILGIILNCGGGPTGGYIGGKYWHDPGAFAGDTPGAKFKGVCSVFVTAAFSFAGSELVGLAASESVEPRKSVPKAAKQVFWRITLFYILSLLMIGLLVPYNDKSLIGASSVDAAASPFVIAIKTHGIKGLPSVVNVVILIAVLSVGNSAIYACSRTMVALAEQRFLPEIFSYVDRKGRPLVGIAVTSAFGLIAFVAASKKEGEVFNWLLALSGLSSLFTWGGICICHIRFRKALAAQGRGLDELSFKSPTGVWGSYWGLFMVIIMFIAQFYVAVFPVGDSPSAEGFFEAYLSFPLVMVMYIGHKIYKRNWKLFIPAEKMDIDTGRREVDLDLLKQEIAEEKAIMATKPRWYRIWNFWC
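Note: amino acid uptake through Gap1 in nitrogen-starved wild-type yeast cells, measured after 60 s and expressed relative to L-citrulline.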
Description: Inhibition of nitrogen-starved wild type sigma1278b yeast Gap1-mediated amino acid uptake at 5 mM after 60 secs relative to L-citrulline

SMILES	inhibition
CSCC[C@H](NC(=O)[C@H](Cc1ccc(O)cc1)NC(=O)[C@@H](N)CC(=O)O)C(=O)O (H-Asp-Tyr-Met-OH)	< 15%
COC(=O)[C@@H](N)CO	< 15%
NC(=O)C(N)Cc1c[nH]c2ccccc12 (racemic)	< 15%
CSCC[C@H](NC(=O)[C@@H](N)Cc1c[nH]c2ccccc12)C(=O)O (H-Trp-Met-OH)	< 15%
NCCCC[C@H](NC(=O)[C@@H](N)Cc1ccc(O)cc1)C(=O)O (H-Tyr-Lys-OH)	> 30%
CN[C@@H](CC(=O)O)C(=O)N[C@@H](Cc1ccccc1)C(N)=O (H-[NMeD]-Phe-NH2)	< 15%
COC(=O)[C@@H]1C=CCN1	< 15%
NCC(=O)N[C@@H](Cc1ccccc1)C(N)=O (H-Gly-Phe-NH2)	15%
N=C(N)NCCC[C@H](NC(=O)[C@@H](N)CC(=O)O)C(=O)O (H-Asp-Arg-OH)	< 15%
NCC(=O)NCC(=O)N[C@@H](CCC(=O)O)C(=O)O (H-Gly-Gly-Glu-OH)	< 15%
NCC(=O)N[C@@H](Cc1c[nH]c2ccccc12)C(=O)O (H-Gly-Trp-OH)	> 30%
COC(=O)[C@@H]1C[C@@H](O)CN1	< 15%
NC(=O)[C@@H]1CCCN1	< 15%
N[C@H]1CSSC[C@@H](C(=O)O)NC1=O	15%
N[C@@H](Cc1c[nH]cn1)C(=O)N[C@@H](Cc1c[nH]cn1)C(=O)O	15%
N[C@@H](Cc1ccc(O)cc1)C(=O)N[C@@H](CCC(=O)O)C(=O)O (H-Tyr-Glu-OH)	< 15%
O=C(O)CNC(=O)[C@H](Cc1cnc[nH]1)NC(=O)[C@@H]1CCC(=O)N1 ([pGlu]-His-Gly-OH)	< 15%
CC(=O)NCC(=O)N[C@@H](Cc1cnc[nH]1)C(=O)N[C@@H](CCCCN)C(=O)O (Ac-Gly-His-Lys-OH)	< 15%
NC(=O)[C@H](CCC(=O)O)NC(=O)[C@@H]1CCCN1 (H-Pro-Glu-NH2)	< 15%
N[C@@H](CS)C(=O)NCC(=O)O	< 15%

SMILES	inhibition
CCOC(=O)C(N)Cc1c[nH]c2ccccc12 (racemic)	< 15%
N[C@@H](Cc1cnc[nH]1)C(=O)NCC(=O)NCC(=O)O (H-His-Gly-Gly-OH)	< 15%
O=C(O)[C@@H]1CNCCN1	< 15%
N[C@@H](CCC(=O)O)C(=O)N[C@@H](Cc1ccc(O)cc1)C(=O)N[C@@H](CCC(=O)O)C(=O)O (H-Glu-Tyr-Glu-OH)	15%
COC(=O)[C@@H](N)CCCCN	< 15%
N[C@@H](Cc1ccc(O)cc1)C(=O)N[C@@H](Cc1ccc(O)cc1)C(=O)N[C@@H](Cc1ccc(O)cc1)C(=O)O (H-Tyr-Tyr-Tyr-OH)	< 15%
NCC(=O)NCC(N)=O	< 15%
NCC[C@H]1CC[C@H](C(=O)O)CC1	< 15%
CCOC(=O)[C@@H](N)Cc1c[nH]c2ccccc12	< 15%
C[C@@H](O)[C@H](N)C(=O)N[C@@H](CCCCN)C(=O)N[C@@H](Cc1ccc(O)cc1)C(=O)O (H-Thr-Lys-Tyr-OH)	< 15%
NCC(=O)NCCC(=O)NCCS(=O)(=O)O	< 15%
O=C(O)[C@H]1CNCCN1	< 15%
COC(=O)[C@H](N)Cc1cnc[nH]1	< 15%
CSCC[C@H](N)C(=O)NCC(=O)NCC(=O)O (H-Met-Gly-Gly-OH)	< 15%
NCC(=O)NCCCC(=O)O	< 15%
CSCC[C@H](N)C(=O)N[C@@H](CCCNC(=N)N)C(=O)N[C@@H](Cc1ccccc1)C(=O)O (H-Met-Arg-Phe-OH)	15%
C[C@@H](O)[C@H](NC(=O)[C@H](CCCCN)NC(=O)[C@@H](N)Cc1ccc(O)cc1)C(=O)O (H-Tyr-Lys-Thr-OH)	< 15%
NCCS(=O)(=O)O	< 15%
CN(CC(=O)O)C(=O)CNC(=O)CN (H-Gly-Gly-[Sar]-OH)	< 15%

Second part, the molecule after the results:

inhibition	SMILES
> 30%	C[C@H](NC=O)C(=O)O
< 15%	NCC(=O)N[C@@H](Cc1cnc[nH]1)C(=O)O (H-Gly-His-OH)
< 15%	NCC(=O)N[C@@H](CCC(=O)O)C(=O)O (H-Gly-Glu-OH)
< 15%	CSCC[C@H](NC(=O)[C@H](CC(C)C)NC(=O)CN)C(N)=O (H-Gly-Leu-Met-NH2)
< 15%	CC(C)C[C@@H](NC(=O)CNC(=O)CN)C(=O)O
< 15%	CC(C)C[C@H](NC(=O)CNC(=O)c1ccccc1)C(N)=O
< 15%	NCC(=O)N[C@@H](CC(=O)O)C(=O)O (H-Gly-Asp-OH)
< 15%	CSCC[C@H](NC(=O)OC(C)(C)C)C(=O)O
< 15%	CC(C)C[C@H](NC(=O)CN)C(=O)N[C@@H](Cc1ccc(O)cc1)C(=O)O (H-Gly-Leu-Tyr-OH)
< 15%	C[C@@H](NC(=O)CN)C(=O)O (H-Gly-[dA]-OH)
< 15%	CC(=O)NCCCC[C@H](NC(C)=O)C(=O)O
< 15%	CC(C)[C@H](N)C(=O)NCC(=O)O (H-Val-Gly-OH)
< 15%	CC(C)(C)OC(=O)NC(Cc1ccc(O)cc1)C(=O)O (stereo in doubt)
< 15%	CC(C)C(NC(=O)CN)C(=O)O (stereo in doubt)
< 15%	CC(C)(C)OC(=O)NC1(C(=O)O)CCCC1
< 15%	COC(=O)[C@@H](N)[C@@H](C)O
< 15%	CCCC(NC(=O)C(C)N)C(=O)O (racemic)
< 15%	N[C@@H](CCC(=O)O)C(=O)N[C@@H](CCC(=O)O)C(=O)O (H-Glu-Glu-OH)
< 15%	N[C@@H](Cc1c[nH]cn1)C(=O)N[C@@H](CO)C(=O)O (H-His-Ser-OH)

inhibition	SMILES
< 15%	CC(C)(C)OC(=O)NCCC[C@H](N)C(=O)O
< 15%	CC(C)[C@@H](NC(=O)OC(C)(C)C)C(=O)O
> 30%	NCC(=O)N[C@H](Cc1ccccc1)C(=O)O
< 15%	CC(C)C[C@@H](N)C(=O)NCC(=O)NCC(=O)O (H-[dL]-Gly-Gly-OH)
< 15%	CSCC[C@H](NC(=O)CN)C(=O)N[C@@H](CC(C)C)C(=O)O (H-Gly-Met-Leu-OH)
< 15%	CC(C)C[C@H](NC(=O)OC(C)(C)C)C(=O)O
> 30%	CC(C)C[C@H](N)C(=O)N[C@@H](Cc1ccc(O)cc1)C(=O)O
15%	CC(NC(=O)CN)C(=O)O (racemic)
< 15%	C[C@H](NC(=O)[C@@H](N)CCC(N)=O)C(=O)O (H-Gln-Ala-OH)
> 30%	C[C@H](N)C(=O)N[C@@H](CO)C(=O)O (H-Ala-Ser-OH)
15%	CC(C)CC(NC(=O)C(C)N)C(=O)O (racemic)
< 15%	CC[C@H](C)[C@H](N)C(=O)N[C@@H](CO)C(=O)O (H-Ile-Ser-OH)
> 30%	C[C@H](N)C(=O)N[C@@H](Cc1cnc[nH]1)C(=O)O (H-Ala-His-OH)
< 15%	CSCC[C@H](NC(=O)[C@@H](N)Cc1ccc(O)cc1)C(=O)O (H-Tyr-Met-OH)
< 15%	CC(C)C[C@H](NC(=O)[C@@H](N)CC(C)C)C(=O)O
> 30%	CC(C)(C)OC(=O)N[C@@H](Cc1ccccc1)C(=O)O
< 15%	N[C@@H](CO)C(=O)N[C@@H](CO)C(=O)N[C@@H](CO)C(=O)O (H-Ser-Ser-Ser-OH)
< 15%	COC(=O)[C@@H](N)CC(C)C
< 15%	N[C@@H](CO)C(=O)N[C@@H](CO)C(=O)O (H-Ser-Ser-OH)

inhibition	SMILES
< 15%	CC(C)C[C@H](NC(=O)[C@@H](N)CC(C)C)C(=O)N1CCC[C@H]1C(=O)O (H-Leu-Leu-Pro-OH)
< 15%	CC(C)C[C@H](NC(=O)CCN)C(=O)O
< 15%	NCC(=O)NCC(=O)N[C@@H](CO)C(=O)O
15%	CC(=O)NC(Cc1ccc(Br)cc1)C(=O)O (racemic)
< 15%	O=C(N[C@@H](CO)C(=O)O)OCc1ccccc1
< 15%	CC(C)[C@H](NC(=O)CNC(=O)CN)C(=O)O (H-Gly-Gly-Val-OH)
< 15%	CC(C)C[C@H](NC(=O)CN)C(=O)N1C[C@H](O)C[C@H]1C(=O)O (H-Gly-Leu-[Hyp]-OH)
< 15%	CC(C)[C@H](NC(=O)[C@@H](N)CCCNC(N)=O)C(=O)O (H-[Cit]-Val-OH)
< 15%	C[C@H](N)C(=O)N[C@H](CCC(=O)O)C(N)=O (H-Ala-[dE]-NH2)
< 15%	CSCC[C@H](N)C(=O)N[C@@H](Cc1cnc[nH]1)C(=O)O (H-Met-His-OH)
< 15%	CC(C)(C)OC(=O)N[C@@H](Cc1cnc[nH]1)C(=O)O
> 30%	CC(C)C[C@H](NC(=O)[C@@H](N)CC(C)C)C(=O)NCCC(=O)O (H-Leu-Leu-[βAla]-OH)
15%	CC(C)C[C@H](NC(=O)[C@@H](N)CC(C)C)C(=O)N[C@@H](CCC(=O)O)C(=O)O (H-Leu-Leu-Glu-OH)
< 15%	CSCC[C@H](NC(=O)CN)C(=O)O
< 15%	O=C(O)C[C@H](NC(=O)OCc1ccccc1)C(=O)O
< 15%	CC(C)C[C@H](NC(=O)[C@@H](N)CC(C)C)C(=O)N[C@H](C(=O)O)C(C)C (H-Leu-Leu-Val-OH)
< 15%	CSCC[C@H](NC(=O)[C@@H](N)Cc1ccccc1)C(=O)O (H-Phe-Met-OH)
< 15%	CC[C@H](C)[C@H](NC(=O)OC(C)(C)C)C(=O)O
< 15%	C[C@H](NC(=O)CNC(=O)CN)C(=O)O
